The record followed here is ChEMBL document CHEMBL1201862, “PubChem BioAssay data set” (2004).

In test [1] the target is Endoplasmic reticulum aminopeptidase 1 (Homo sapiens, UniProt Q9NZ08). Nature of the test: inhibition of human ERAP1 enzyme activity – biochemical, cherry-pick, set 2, plate reader, dose response (AID 743314).
The nature of test [2]: non-specific 3'UTR reporter inhibition in Clone20-Shn3RL – cell-based, Renilla luciferase, cherry-picked, counter-screen for Shn3 inhibitor project, dose response (AID 624133). It counts as functional.
The nature of test [3]: Shn3 3'UTR reporter signal decrease – cell-based, Clone20 osteoblasts, firefly luciferase, cherry-pick, set 2, Schnurri-3 inhibitor project, dose response (AID 720490).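 Further: actives lower the luminescence signal as inhibitors.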 It counts as functional.
Test [4] can be described thus: EF1alpha-driven Renilla reporter with control 3'UTR suppression – Clone20-Shn3RL cells, dual-Glo, cherry-pick, set 2, counter-screen for Shn3 3'UTR targeting project, dose response (AID 720724). Conditions: Dual-Go Shn3RL. It counts as functional, cell-based.
Test [5] can be described thus: loss of viability in HepG2 cells – cell-based, CellTiter-Glo, cherry-picked, cytotoxicity control for Shn3 inhibitor project, dose response (AID 624134). The test is classed as functional.
Test [6] can be described thus: reduction of Shn3 3'UTR-driven luciferase in osteoblasts – cell-based, Clone20 osteoblasts, firefly luciferase, cherry-picked, dose response (AID 624132).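 Further: firefly luciferase luminescence from reporter carrying the Shn3 3'UTR in osteoblasts.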 The test is classed as functional.
Test [7] in a line: MITF: Counter assay: A375 proliferation Measured in Cell-Based System Using Plate Reader - 2084-03_Inhibitor_Dose_DryPowder_Activity_Set8. The test is classed as functional. Conditions: A-375.
Test [8] in a line: inhibitors of TRPM1-promoter reporter in SK-MEL-5 – cell-based, luciferase, dry powder, set 8, MITF inhibitor project, dose response (AID 624430). It counts as functional.
Test [9] in a line: MITF Orthogonal Assay: SK-MEL-5 CTG Assay Measured in Cell-Based System Using Plate Reader - 2084-02_Inhibitor_Dose_DryPowder_Activity_Set7. It counts as functional.
The target of test [10] is Nuclear receptor subfamily 5 group A member 2 (Homo sapiens, UniProt O00482). It counts as functional, cell-based.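 Further: HEK293T cells transfected with LRH-1 and a StAR promoter luciferase reporter; potency for inhibitors that lower LRH-1 driven reporter light.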
Sequence of Nuclear receptor subfamily 5 group A member 2 (O00482 whole entry): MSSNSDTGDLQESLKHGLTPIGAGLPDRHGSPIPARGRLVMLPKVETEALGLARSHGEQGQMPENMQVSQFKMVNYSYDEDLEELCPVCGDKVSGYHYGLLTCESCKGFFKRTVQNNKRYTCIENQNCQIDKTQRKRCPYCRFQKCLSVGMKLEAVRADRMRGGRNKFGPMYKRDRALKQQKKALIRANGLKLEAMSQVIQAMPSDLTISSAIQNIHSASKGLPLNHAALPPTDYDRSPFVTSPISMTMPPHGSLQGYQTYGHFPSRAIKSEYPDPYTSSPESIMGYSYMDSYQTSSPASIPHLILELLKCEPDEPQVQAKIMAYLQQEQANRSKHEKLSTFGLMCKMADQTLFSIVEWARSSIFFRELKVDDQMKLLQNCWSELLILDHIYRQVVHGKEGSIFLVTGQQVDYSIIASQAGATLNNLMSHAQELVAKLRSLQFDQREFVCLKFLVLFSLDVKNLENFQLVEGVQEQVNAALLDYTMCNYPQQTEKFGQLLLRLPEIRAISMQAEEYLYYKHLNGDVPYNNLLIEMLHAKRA
Test [11] deals with Steroidogenic factor 1 (Homo sapiens, UniProt Q13285). Nature of the test: Counterscreen for inverse agonists of the liver receptor homolog-1 (LRH-1; NR5A2): Luminescence-based cell-based high throughput dose response assay to identify inverse agonists of the Steroidogenic Factor 1 Nuclear Receptor (SF1; NR5A1). It counts as functional.
Sequence of Steroidogenic factor 1 (Q13285 whole entry): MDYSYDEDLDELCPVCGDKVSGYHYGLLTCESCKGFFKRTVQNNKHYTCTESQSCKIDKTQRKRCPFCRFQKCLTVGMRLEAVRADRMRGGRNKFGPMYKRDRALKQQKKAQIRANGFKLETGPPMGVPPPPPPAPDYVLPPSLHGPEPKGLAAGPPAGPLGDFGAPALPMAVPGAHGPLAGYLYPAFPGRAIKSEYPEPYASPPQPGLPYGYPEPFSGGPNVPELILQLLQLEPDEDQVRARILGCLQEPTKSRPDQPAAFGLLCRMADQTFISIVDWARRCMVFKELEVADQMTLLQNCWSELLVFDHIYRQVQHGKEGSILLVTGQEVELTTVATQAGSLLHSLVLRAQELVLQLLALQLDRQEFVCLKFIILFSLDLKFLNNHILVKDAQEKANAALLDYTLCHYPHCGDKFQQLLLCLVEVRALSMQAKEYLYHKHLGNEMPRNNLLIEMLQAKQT
A short description of test [12]: nonselective StAR promoter luciferase inhibitors – cell-based, luminescence, luciferase reporter, counter-screen for LRH-1 inverse agonist project, dose response (AID 651969). The test is classed as functional.
Test [13] deals with T1, Sentrin-specific protease 1 (Homo sapiens, UniProt Q9P0U3). Nature of the test: SENP1 catalytic domain blockers, concentration series – biochemical, kinetic FRET, dose response (AID 651697). It counts as functional. Conditions: read-out: IC50_Mean.
T1 sequence (Q9P0U3 whole entry, the tested form may be a part): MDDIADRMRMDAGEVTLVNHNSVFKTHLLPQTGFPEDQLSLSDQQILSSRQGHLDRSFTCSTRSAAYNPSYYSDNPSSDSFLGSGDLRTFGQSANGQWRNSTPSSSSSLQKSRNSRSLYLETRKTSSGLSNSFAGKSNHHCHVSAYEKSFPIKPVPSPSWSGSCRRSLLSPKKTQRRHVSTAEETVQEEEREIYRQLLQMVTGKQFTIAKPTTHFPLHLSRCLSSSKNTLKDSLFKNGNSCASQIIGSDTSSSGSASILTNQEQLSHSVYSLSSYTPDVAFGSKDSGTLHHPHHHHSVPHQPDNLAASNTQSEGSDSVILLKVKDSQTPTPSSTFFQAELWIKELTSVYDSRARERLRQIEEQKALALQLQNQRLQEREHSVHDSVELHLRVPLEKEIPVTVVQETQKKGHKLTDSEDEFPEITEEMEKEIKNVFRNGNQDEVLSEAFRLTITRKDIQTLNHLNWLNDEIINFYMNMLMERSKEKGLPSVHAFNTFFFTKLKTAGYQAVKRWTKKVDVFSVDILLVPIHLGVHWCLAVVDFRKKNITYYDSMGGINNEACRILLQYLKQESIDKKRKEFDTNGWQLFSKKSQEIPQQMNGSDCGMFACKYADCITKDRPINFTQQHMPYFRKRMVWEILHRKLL
For test [14], the target named is T1, Sentrin-specific protease 1. In words: Dose response confirmation of small molecule inhibitors of the catalytic domain of the SUMO protease, SENP1 in a FRET assay. It counts as functional. Conditions: read-out: IC50_Mean.
Test [15] addresses Photoreceptor-specific nuclear receptor (Homo sapiens, UniProt Q9Y5X4). It counts as functional, cell-based.
Test [16] deals with T2, Low molecular weight phosphotyrosine protein phosphatase (Homo sapiens, UniProt P24666).
T2 sequence (P24666 whole entry): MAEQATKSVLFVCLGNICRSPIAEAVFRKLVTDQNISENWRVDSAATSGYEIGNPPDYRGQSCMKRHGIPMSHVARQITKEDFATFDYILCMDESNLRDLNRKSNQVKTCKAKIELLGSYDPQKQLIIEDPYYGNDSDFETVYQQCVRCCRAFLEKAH
It counts as functional. Conditions: read-out: IC50_Mean.

Test [17] addresses T2, Low molecular weight phosphotyrosine protein phosphatase. It counts as functional. Conditions: read-out: IC50_Mean. This is another data set of the same source.
Test [18] in a line: A Cell-Based Confirmatory Screen for Compounds that Inhibit VEEV, TC-83 (7). It counts as functional.
Test [19] is described as follows: COV434 cell viability loss – plate reader, dry powder, SA7, cytotoxicity control for PAX8 inhibitor project, dose response (AID 743145). It counts as functional, cell-based.
The nature of test [20]: OV-90 cell viability loss – plate reader, dry powder, SA8, PAX8 inhibitor project, dose response (AID 743149). The test is classed as functional, cell-based.
The nature of test [21]: OVCAR-3 cell viability loss – plate reader, dry powder samples, PAX8 inhibitor project, dose response (AID 743044). It counts as functional, cell-based.
Test [22] is described as follows: COV362 cell viability loss – plate reader, dry powder, SA12, cytotoxicity control for PAX8 inhibitor project, dose response (AID 743144). The test is classed as functional, cell-based.
A short description of test [23]: IGROV1 cell killing – plate reader, dry powder samples, PAX8 inhibitor project, dose response (AID 743043). The test is classed as functional, cell-based. Conditions: IGROV-1.
Test [24] can be described thus: toxicity toward immortalized ovarian surface epithelium – cell-based, plate reader, dry powder samples, cytotoxicity control for PAX8 inhibitor project, dose response (AID 743045). It counts as functional.
Test [25] concerns the target Paired box protein Pax-8 (Homo sapiens, UniProt Q06710). In words: PAX8 transcriptional activity inhibition in RMG-I – RMG-I cells, luciferase, cherry-pick, dose response (AID 687027).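 Further: luciferase reporter driven by Pax8 target thyroperoxidase promoter measured by SteadyGlo luminescence.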 The test is classed as functional, cell-based.
Test [26] is described as follows: PAX5 cellular inhibition readout – cell-based, plate reader, dry powder samples, selectivity assay for PAX8 inhibitor project, dose response (AID 743047).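 Further: HEK293 cells carrying a Pax5 driven CD19 promoter luciferase reporter; potency of inhibitors that lower reporter luminescence.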 The test is classed as functional.
A short description of test [27]: inhibitors acting on PAX2 in cells – cell-based, plate reader, dry powder samples, selectivity assay for PAX8 inhibitor project, dose response (AID 743048).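 Further: HEK293 cells carrying a WT1 promoter luciferase reporter driven by expressed Pax2; potency is for inhibition of Pax2 driven reporter signal.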 The test is classed as functional.
Test [28] is described as follows: general cell-killing toxicity readout – plate reader, dry powder samples, cytotoxicity control for PAX8 inhibitor project, dose response (AID 743021). It counts as functional, cell-based.
Test [29] can be described thus: OVCAR4 cell viability loss – plate reader, dry powder, SA11, cytotoxicity control for PAX8 inhibitor project, dose response (AID 743150). The test is classed as functional, cell-based. Conditions: OVCAR-4.

SMILES strings stand for the structures. Activity calls are given as the source filed them.

Sequence of Paired box protein Pax-8 (Q06710 whole entry): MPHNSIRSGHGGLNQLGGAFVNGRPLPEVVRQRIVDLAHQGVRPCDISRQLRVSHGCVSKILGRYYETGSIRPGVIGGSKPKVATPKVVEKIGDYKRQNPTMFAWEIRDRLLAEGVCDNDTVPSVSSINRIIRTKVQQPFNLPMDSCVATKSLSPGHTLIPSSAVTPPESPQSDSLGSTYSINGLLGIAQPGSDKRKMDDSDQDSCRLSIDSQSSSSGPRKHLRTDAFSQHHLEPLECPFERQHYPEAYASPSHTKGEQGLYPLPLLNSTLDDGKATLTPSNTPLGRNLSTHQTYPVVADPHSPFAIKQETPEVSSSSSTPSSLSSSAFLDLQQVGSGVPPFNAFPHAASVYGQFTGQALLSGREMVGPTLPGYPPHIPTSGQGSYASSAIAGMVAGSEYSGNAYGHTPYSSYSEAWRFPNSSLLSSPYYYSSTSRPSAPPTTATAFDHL
Sequence of Endoplasmic reticulum aminopeptidase 1 (Q9NZ08 whole entry): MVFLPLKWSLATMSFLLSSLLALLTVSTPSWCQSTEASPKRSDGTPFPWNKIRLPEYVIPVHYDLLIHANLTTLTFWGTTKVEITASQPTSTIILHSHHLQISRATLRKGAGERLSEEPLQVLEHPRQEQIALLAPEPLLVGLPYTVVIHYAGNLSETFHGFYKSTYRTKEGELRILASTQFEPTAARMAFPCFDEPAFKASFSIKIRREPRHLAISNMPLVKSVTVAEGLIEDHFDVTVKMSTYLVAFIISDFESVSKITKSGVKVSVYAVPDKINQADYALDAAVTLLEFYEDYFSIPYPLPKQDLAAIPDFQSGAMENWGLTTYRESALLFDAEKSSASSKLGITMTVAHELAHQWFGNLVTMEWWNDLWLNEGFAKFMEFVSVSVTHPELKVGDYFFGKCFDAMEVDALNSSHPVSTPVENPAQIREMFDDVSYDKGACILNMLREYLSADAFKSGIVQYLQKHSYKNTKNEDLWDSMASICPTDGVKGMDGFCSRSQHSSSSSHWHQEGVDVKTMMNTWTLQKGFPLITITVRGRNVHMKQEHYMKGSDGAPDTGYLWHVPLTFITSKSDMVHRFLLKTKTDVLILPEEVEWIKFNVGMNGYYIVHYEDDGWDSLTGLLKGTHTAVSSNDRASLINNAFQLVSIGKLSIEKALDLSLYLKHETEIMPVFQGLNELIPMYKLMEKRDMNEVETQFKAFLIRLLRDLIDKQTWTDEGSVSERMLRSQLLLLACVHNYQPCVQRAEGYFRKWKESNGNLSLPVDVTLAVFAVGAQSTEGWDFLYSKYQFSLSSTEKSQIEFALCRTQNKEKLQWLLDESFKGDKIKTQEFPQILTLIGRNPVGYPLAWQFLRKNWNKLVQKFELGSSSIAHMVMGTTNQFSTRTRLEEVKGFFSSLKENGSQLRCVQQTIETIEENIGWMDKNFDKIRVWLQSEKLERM
Sequence of Photoreceptor-specific nuclear receptor (Q9Y5X4 whole entry): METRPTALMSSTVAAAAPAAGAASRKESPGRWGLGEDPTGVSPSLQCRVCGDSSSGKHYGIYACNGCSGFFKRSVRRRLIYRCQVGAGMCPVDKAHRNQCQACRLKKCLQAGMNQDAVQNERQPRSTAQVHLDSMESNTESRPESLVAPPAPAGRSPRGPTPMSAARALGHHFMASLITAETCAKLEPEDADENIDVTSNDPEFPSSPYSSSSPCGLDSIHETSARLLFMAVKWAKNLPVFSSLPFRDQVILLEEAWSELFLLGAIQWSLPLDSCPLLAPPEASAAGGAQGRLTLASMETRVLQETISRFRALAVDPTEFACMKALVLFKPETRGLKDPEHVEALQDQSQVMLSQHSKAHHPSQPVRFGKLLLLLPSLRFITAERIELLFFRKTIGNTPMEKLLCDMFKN

Consider `CCCNC(=O)[C@H]1[C@H](CO)[C@H]2Cn3c(ccc(/C=C/c4ccccc4)c3=O)[C@H]2N1CCC`, for which the AC50 in test [1] is 14.8 µM (active).

As for `CCOc1cc(CNCCc2ccc(S(N)(=O)=O)cc2)ccc1OCc1ccccc1`, the concentration at half-maximal activity (AC50) is 25.5 µM (active) in [2]; 3.56 µM (active) in test [3]; 31.9 µM (active) in test [4]; > 70 µM (inactive) in [5]; 2.44 µM (active) in test [6].

Regarding `CN1CCN(C2=C(Nc3ccc(Cl)c(Cl)c3)C(=O)c3ccccc3C2=O)CC1`, the figures for the concentration at half-maximal activity (AC50) in test [7], in test [8] and in test [9] were 27.9 µM (active), 6.64 µM (active) and 7.66 µM (active), respectively.

As to `CC(=O)Nc1cc(-c2ccc(F)cc2)cn2c(-c3ccc(S(C)(=O)=O)cc3)cnc12`, the IC50 is 8.66 µM (active) in test [10], 3.15 µM (active) in [11] and 21.3 µM (inactive) in [12].

With `COc1cc(NC2=Nc3cccc4cccc2c34)cc(OC)c1OC`, the IC50 is 68.8 µM (inactive) in test [13] and 19.9 µM (active) in test [14].

`FC(F)Sc1ccc(NC(=S)N2CCN(c3ccccn3)CC2)cc1`: the IC50 in [15] is 2.52 µM (active).

Regarding `O=C(OCCNc1nc(-c2ccccc2)nc2ccccc12)c1ccncc1`, the IC50 in test [16] is 24.6 µM (inactive); in [17] it was 11.8 µM (active).

For `O=c1c2cc([N+](=O)[O-])ccc2nc(CN2CCCNC2)n1-c1ccccc1`, the IC50 in test [18] was 1.13 µM (active).

Take `Cc1ccccc1CNC(=O)C1CCCN(c2nnc(C)c3c(C)n(-c4ccccc4)nc23)C1` (centres undefined): the half-maximal activity concentration (AC50) in test [19] was 98.3 µM (active); in test [20], 9.9 µM (active); in test [21], 42.8 µM (active); in test [22], 42.3 µM (active); in [23] it was 32.4 µM (active); in test [24] it was 91.9 µM (active). In addition, the AC50 in [25] is 5.95 µM (active); in test [26], 24 µM (active); in [27], 4.18 µM (active); in test [28], < 29.5 µM (active); in test [29], 61.3 µM (active).
